This is an account of results in patent US20250099488A1, “ANTI-PARASITE COMPOUNDS” (AUSTRALIAN NATIONAL UNIVERSITY, priority 2022, published 2025).

“And” between values parts separate entries of the source, which are not always exact repeats. Identical values can stand only once. Like-named read-outs stand apart in the source and are kept apart here. Bounds are passed on as bounds.

For series [1], the system named is P. berghei liver stage schizonts. As to the kind of experiment: P. berghei liver stage parasite size and number (fluorescence microscopy) in Huh7 cells. The format is cell-based, Plasmodium berghei. The settings on record: for Smaller parasite size (reduction): 48 hours post-infection, vs DMSO. Here is the method:
(§1) Huh7 cells were seeded at a density of 10 000 cells per well, or 20 000 per collagen-coated coverslip. […] Uninfected wells served as a control for background luminescence. […] Data are presented as a percentage of the size or parasite number of the solvent control to normalize for differences between experiments. For cell images presented in the figure, images were collected under optimal exposure settings to ensure features were visible. Individual cells were cropped from larger images with Fiji ImageJ, and the brightness was adjusted while ensuring that no fluorescence was removed. No other manipulations were performed.

For series [2], the system named is P. falciparum gametocytes (stage III-IV). Kind of series: Gametocyte viability assay (MitoTracker, flow cytometry). The format is cell-based, Plasmodium falciparum. The source says:
Gametocyte assays begun eight days post-invasion (Stage III-IV).
(§2) Growth inhibition data were normalised by subtracting background fluorescence, luminescence, absorbance, or percentage of cells from a no-growth or no-viability control (high drug concentration, no-parasite control, or time=0 measurement as specified), and expressed as a percentage of the growth or cell percentage in the negative control (culture media alone or solvent control) at the indicated timepoint (or to the highest measurement reached during the assay for FIG. 15B).

For series [3], the system named is human foreskin fibroblasts (HFF). As to the kind of experiment: HFF growth inhibition assay (SYBR Safe). It counts as cell-based. On the procedure:
Cells were incubated with a serial dilution of each compound, or media/DMSO alone. The protein synthesis inhibitor cycloheximide (10 μg/mL) was used as a positive control to determine background fluorescence. Approximately 5000 cells were seeded in each well. […] Plates were transferred to a −18° C. freezer. […] Fluorescence was read at 490 nm excitation/520 nm emission on a FLUOstar Optima fluorescence plate reader.
HFF cell growth inhibition assays began with 5000 cells per well. 10 μg/mL cycloheximide was used as a no-growth control.

Series [4] concerns human hepatoma cells (Huh7). As to the kind of experiment: Huh7 hepatoma viability assay (CellTiter-Blue). The format is cell-based. The settings on record: 48 hours. Here is the method:
Huh7 hepatoma viability assays were conducted in the same manner as the P. berghei assays, with metabolic capacity (indicating viability) measured by incubation with CellTiter-Blue® (Promega) for 3 hours.

Series [5] concerns human embryonic kidney cells (HEK293). Kind of series: HEK293 cell viability assay (MTT). It counts as cell-based. To be noted: 96 hours. Here is the method: HEK293 cell viability assays began with 5000 cells per well. 10 μg/mL cycloheximide was used as a no-growth control. Metabolic capacity (indicating viability) was measured by incubation with 0.45 mg/mL methylthiazolyldiphenyl-tetrazolium bromide (MTT; Sigma M2128) for two hours followed by crystal solubilisation in SDS.

Another series has as its system P. berghei liver stages. As to the kind of experiment: P. berghei liver stage growth assay (luciferase) in Huh7 cells. It counts as cell-based, Plasmodium berghei. On the procedure:
as §1, §2

For series [6], the system named is Toxoplasma gondii tachyzoites. As to the kind of experiment: Toxoplasma growth inhibition assay (tdTomato fluorescence). It counts as cell-based. Here is the method:
Fluorescent Toxoplasma gondii parasites were inoculated into an optical bottom 96-well plate containing confluent human foreskin fibroblast (HFF) host cells at a density of 2000 parasites/well, with a serial dilution of each compound, or media/DMSO alone. Plates were measured daily with a FluoStar Optima fluorescence plate reader at 540 nm excitation/590 nm emission for seven days, and the background fluorescence from the time 0 reading was subtracted from all other measurements.
Fluorescence was measured daily with a FluoStar Optima fluorescence plate reader for one week, and the background fluorescence from the time 0 reading was subtracted from all other measurements.
as §2

For a further series, the system named is asexual P. falciparum. As to the kind of experiment: Plasmodium growth inhibition assay (SYBR Safe), asexual stages. The format is cell-based, Plasmodium falciparum. To be noted: for IC90: read-out: IC90.
Series [7] has as its system P. falciparum CAM3.IIREV (susceptible). Kind of series: Ring stage survival assay, susceptible revertant strain. The format is cell-based, Plasmodium falciparum. The settings on record: 700 nM for six hours, then 66 hours without drug. The source says:
(§3) The inventors tested these compounds in a ring stage survival assay, which allows the detection of resistant parasites against this […] drug and is the standard method for investigating resistance to artemisinin and its derivatives (Witkowski B, Menard D, Amaratunga C. Fairhurst R. Ring-stage Survival Assays (RSA) to evaluate the in-vitro and ex-vivo susceptibility of Plasmodium falciparum to artemisinins Procedure. Inst Pasteur du Cambodge—Natl Institutes Heal [Internet]. 2013 Sep. 11 [cited 2022 Jun. 19]; Procedure; available from: https://www.wwarn.org/sites/default/files/INV10-Standard-Operating-Procedure-Ring-Stage-Survival-Assays.pdf). This assay involves a short treatment window against newly-invaded ring stage parasites, followed by removal of drug pressure to mimic the clearance of the drug from plasma. We utilised two parasite strains: an isolate from Cambodia (CAM3.II) with a mutated Kelch-13 conferring resistance, and a genetically modified revertant of this strain (CAM3.IIREV) conferring drug susceptibility (Straimer J, Gnädig N F, Witkowski B, Amaratunga C, Duru V, Ramadani A P, et al. K13-propeller mutations confer artemisinin resistance in Plasmodium falciparum clinical isolates. Science (80-) [Internet]. 2015 Jan. 23 [cited 2022 Jun. 19]; 347(6220):428-31; available from: https://www.science.org/doi/10.1126/science.1260867).
(§4) Following tight synchronisation, CAM3.II and CAM3.IIREV ring stage parasites (0-3 hours post invasion) at 1% parasitaemia and 2% haematocrit were incubated with 700 nM of compounds or solvent-only controls for exactly six hours, before removing the drug, thoroughly washing in RPMI, and returning to culture conditions for a further 66 hours. Some cells were treated with 700 nM artesunate for 72 hours as a no-growth control. DNA replication (indicating growth) was measured at the specified time using SYBR Safe DNA Gel Stain. Microscope slide smears of each condition were stained with 10% v/v Giemsa and examined under a light microscope (1 000× magnification); with ‘viable’ (morphologically normal) and ‘non-viable’ (morphologically aberrant; vacuolated or pyknotic) parasites distinguished according to standard protocol (Witkowski B, Menard D, Amaratunga C, Fairhurst R. Ring-stage Survival Assays (RSA) to evaluate the in-vitro and ex-vivo susceptibility of Plasmodium falciparum to artemisinins Procedure. Inst Pasteur du Cambodge—Natl Institutes Heal [Internet]. 2013 Sep. 11 [cited 2022 Jun. 19]; Procedure. Available from: https://www.wwam.org/sites/default/files/INV10-Standard-Operating-Procedure-Ring-Stage-Survival-Assays.pdf). Images were captured using a Leica ICC50 camera, with a resolution of 76 nm per pixel.

The conditions of series [8]: in vivo; cited from earlier work.
The subject of series [9] is P. falciparum CAM3.II (mutated Kelch-13, resistant). As to the kind of experiment: Ring stage survival assay, resistant strain. The settings on record: 700 nM for six hours, then 66 hours without drug. The format is cell-based, Plasmodium falciparum.
Text: as §3, §4

Regarding `COc1cc(NC(C)CCCNC(=O)CCC(=O)O[C@H]2CC[C@H]3[C@@H]4CC=C5C[C@@H](O)CC[C@]5(C)[C@H]4CC[C@]23C)c2ncccc2c1` (stereo partly drawn) [C-17-prim, 3β-Hydroxyandrost-5-en-17β-yl succinate-primaquine amide], the “Smaller parasite size (reduction)” value in series [1] (0.3 μM) worked out at 48%; in series [1] (3 μM) it was 90%. For the same compound, in series [1] (0.3 or 3 μM, compared to the same concentration of primaquine or DMSO-only control), the “Parasite number (per coverslip)” value is reported as “significantly lower”. Besides, the “Fold reduction in IC50 compared to primaquine alone” value in series [2] (48 hours) is reported as 9 fold; in the series on P. berghei liver stages (48 hours), ~15 fold. For the same compound, the IC50 was determined as 6.9 µM in series [2] (Plasmodium falciparum, 48 h, read-out: IC50, gametocyte viability); 0.2 µM with P. berghei liver stages (Plasmodium berghei, Huh-7, 48 hours of treatment from sporozoite inoculation, Huh7 cells, FIG. 16A); 2.8 µM in series [6] (Toxoplasma gondii, 72 h, read-out: IC5 against T. gondii); 3.1 µM in the series on asexual P. falciparum (Plasmodium falciparum, 24 hours, starting with ring-stage parasites, FIG. 14B, read-out: IC50). For the same compound, in [3] (72 hours), the “Concentration with substantial effect on fibroblast growth” value was 10 µM. The “Maximal inhibition of HFF growth at the range of concentrations tested” value in [3] (72 hrs) was ≤ 30%. Also, the “Cell viability over the range of concentrations” value in series [4] is recorded as > 50%. Further, in series [4] (effect on cellular integrity / modest cytotoxicity), the “Concentration at which cytotoxic effect was detected” value amounted to 3 µM. Also, in [5], the “Concentration at which gradual cytotoxicity emerges” value stood at 10 µM. The “Fold lower IC50 than primaquine” value in series [6] (72 hours) is listed as ~3.5 fold. In addition, the “Fold lower IC50 than primaquine alone” value with asexual P. falciparum was ~4 fold. Besides, the “Fold difference in IC90 vs primaquine” value in the series on asexual P. falciparum (24 hours) is listed as ~8 fold. The “Hill slope of inhibitory curve” value in the series with asexual P. falciparum (24 hours) is reported as −4.56; with asexual P. falciparum (72 hours) it was −4.20. For the same compound, the IC90 was found to be 5 µM with asexual P. falciparum (Plasmodium falciparum, 24 hours) and 4 µM with asexual P. falciparum (Plasmodium falciparum, 72 hours exposure time).

Turning to `C[C@H]1[C@H](OC(=O)CCC(=O)O)O[C@@H]2O[C@@]3(C)CC[C@H]4[C@H](C)CC[C@@H]1[C@@]24OO3` [artesunate, reference compound], the “Morphology in Giemsa-stained smears” value is “only morphologically aberrant parasites were present” in series [7]; “a combination of morphologically normal parasites and morphologically aberrant pyknotic or vacuolated forms” in series [9]. For the same compound, the Half-life in blood in [8] was 30 to 90 min. Also, the “Parasite survival (DNA replication)” value in [9] (FIG. 17B) is > 30% and ~30%.
